The results in this text go back to PubChem BioAssay (NCI).

Common to all, as to experiment: DTP human tumour cell line panel, 48 h
Assay [1] has as its system HCT-116 colon.
In assay [2] the test system is RPMI-8226 leukemia.
Assay [3] relates to UACC-62 melanoma.
Assay [4] relates to A498 renal.
The test system of assay [5] is DU-145 prostate.
Assay [6] relates to MALME-3M melanoma.
Assay [7] deals with MOLT-4 leukemia.
For assay [8], the system named is K-562 leukemia.
The test system of assay [9] is PC-3 prostate.
The subject of assay [10] is SF-295 CNS.

Each structure is given as a SMILES string. Where “and” joins values, the source holds several entries; their conditions need not be identical. Identical values can stand only once.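 Compound exposure: 48 hours, 5 concentrations, 96-well plates. GI50 is the concentration that inhibits growth by half. The concentration for full growth arrest is given as TGI.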

The term GI50 denotes the concentration giving 50% growth inhibition. Broadly, the TGI is the concentration giving total growth inhibition. Take `CC(C)(C)C(=O)OCc1nc2cc3c(cc2c(=O)[nH]1)CCC3=O`: the GI50 in assay [1], in assay [2], in [3], in assay [4], in assay [5] and in assay [6] was over 100 µM throughout. For the same molecule, the GI50 in assay [7], in assay [8], in assay [9] and in assay [10] was over 100 µM throughout. Besides, the TGI in assay [1], in assay [2], in assay [3], in [4], in [5] and in [6] was over 100 µM in each case. The TGI in [7], in assay [8], in [9] and in assay [10] was over 100 µM throughout.

On to `O=C1c2ccccc2-c2c1c1ccccc1c(=O)n2-c1ccccc1`, for which the TGI was 26.8 µM in assay [1]; over 100 µM in [2]; over 54.2 µM in assay [3]; 60.7 µM in assay [4]; over 100 µM in [5]; over 100 µM in assay [6]. Also, the TGI in assay [7] was over 100 µM; in assay [8] it was over 100 µM; in [9] it was over 100 µM; in assay [10] it was 23.6 µM.

`CO[C@H](C(=O)O)[C@@H]1Cc2cc3cc(OC4CC(OC5CC(O)C(O)C(C)O5)C(O)C(C)O4)c(C)c(O)c3c(O)c2C(=O)[C@H]1OC1CC(OC2CC(OC3CC(C)(O)C(O)C(C)O3)C(O)C(C)O2)C(O)C(C)O1` (some centres not stated): the 50% growth inhibitory concentration (GI50) in [1] was 0.132 µM; in assay [2], 0.16 µM; in assay [3], 0.108 µM; in [4], 0.135 µM; in [5], 0.364 µM; in assay [6] it was 0.205 µM. The GI50 in assay [7] is 0.272 µM; in assay [8] it was 0.303 µM; in [9] it was 0.348 µM; in assay [10], 0.167 µM. Further, the TGI in assay [1] is over 32.5 µM; in assay [2], 2.23 µM; in assay [3] it was 0.496 µM; in [4], 0.773 µM; in [5], over 32.5 µM; in [6], 1.4 µM. Also, the TGI in assay [7] is 6.41 µM; in assay [8], over 32.5 µM; in assay [9], over 32.5 µM; in assay [10], over 32.5 µM.

Consider `Oc1ccc(Cl)cc1-c1cc(-c2ccc(F)cc2)n[nH]1`, for which the GI50 in [1] was 2 µM; in [2], 1.36 µM; in assay [3], 2.42 µM; in assay [4], 2.21 µM; in assay [5] it was 3.04 µM; in [6] it was 3.26 µM. The GI50 in [7] is 2.8 µM; in [8] it was 2.8 µM; in assay [9] it was 1.96 µM; in [10], 2.16 µM. For the same molecule, the TGI in assay [1] was determined as 5.64 µM; in assay [2], 4.58 µM; in [3], 9.5 µM; in [4] it was 6.85 µM; in assay [5], 10.8 µM; in [6], 9.66 µM. The TGI in assay [7] worked out at 41.4 µM; in assay [8] it was 27.1 µM; in assay [9] it was 8.81 µM; in assay [10] it was 5.24 µM.

Take `N#Cc1c2c(c(-c3cccs3)n(C3OC(CO)C(O)C(O)C3O)c1=S)CCc1ccccc1-2` (configuration not stated): the GI50 is 7.39 µM and 15.5 µM in assay [1]; 9.27 µM and > 23.7 µM in assay [2]; 5.6 µM and 15.7 µM in [4]. Further, the TGI in assay [1], in assay [2], in [3], in assay [4], in assay [5] and in assay [6] was over 100 µM in each case. For the same molecule, the TGI in assay [7], in [8], in assay [9] and in [10] was over 100 µM throughout.

Take `C[N+](C)([O-])CCCNc1ccnc2cccc([N+](=O)[O-])c12`: the TGI in assay [1] is over 100 µM; in [2], 57.6 µM; in assay [3] it was over 100 µM; in assay [4], over 100 µM; in [5], 44.1 µM; in [6] it was 87.6 µM. Further, the TGI in assay [7] was 67.6 µM; in assay [8] it was over 100 µM; in assay [9], over 100 µM; in [10], over 100 µM.

Consider `ClCC#CCSc1ncnc2c1ncn2CC#CCCl`, for which the GI50 is 1.42 µM in assay [1]; 2.03 µM in assay [2]; 1.17 µM in [3]; 1.75 µM in assay [4]; 1.79 µM in assay [5]; 1.88 µM in assay [6]. The GI50 in [7] is 2.68 µM; in assay [8], 3.15 µM; in [9], 1.41 µM; in assay [10] it was 2.05 µM. Besides, the TGI in assay [1] came out at 2.93 µM; in [2], 6.38 µM; in assay [3], 2.66 µM; in [4] it was 4.75 µM; in assay [5], 4.49 µM; in assay [6], 6.42 µM. Besides, the TGI stood at 14.1 µM in assay [7], 40.4 µM in assay [8], 3.24 µM in assay [9] and 4.59 µM in assay [10].

On to `O=C(Nc1ccc(I)cc1F)c1cc(I)ccc1O`, for which the GI50 was 0.768 µM in [1]; 0.375 µM in assay [2]; 0.312 µM in assay [3]; 0.324 µM in assay [4]; 0.873 µM in assay [5]; 0.32 µM in assay [6]. The GI50 in [7] was 0.965 µM; in assay [8], 0.434 µM; in assay [9], 1.14 µM; in assay [10] it was 0.8 µM. Further, the TGI was 3.35 µM in assay [1]; 1.64 µM in assay [2]; 1.22 µM in [3]; 1.24 µM in assay [4]; over 100 µM in assay [5]; 1.52 µM in assay [6]. The total growth inhibition concentration (TGI) in assay [7] was 3.5 µM; in [8], over 100 µM; in assay [9], 9.76 µM; in assay [10], 2.14 µM.

On to `CCCn1c(N)c(C(=O)CNc2ccc(I)cc2)c(=O)[nH]c1=O`, for which the GI50 was 0.677 µM in assay [1]; 0.51 µM in [2]; 1.15 µM in assay [3]; 27.5 µM in [4]; 7.12 µM in [5]; 45.6 µM in [6]. In addition, the GI50 is 0.422 µM in [7], 5.44 µM in [9] and 0.795 µM in assay [10]. In addition, the concentration for total growth inhibition (TGI) in [1], in [2], in [3], in [4], in [5] and in assay [6] was over 100 µM each time. For the same molecule, the TGI in [7] was over 100 µM; in [8] it was over 100 µM; in assay [9], over 100 µM; in [10] it was over 63.6 µM.

Turning to `CCOC(=O)c1ccccc1-c1c2ccc(=[N+](C)C)cc-2oc2cc(N(C)C)ccc12`, the GI50 in assay [1] was 0.257 µM; in assay [2], 0.082 µM; in assay [3] it was 0.332 µM; in [4] it was 0.013 µM; in assay [5], 0.174 µM; in assay [6] it was 0.333 µM. Moreover, the GI50 in assay [7] is 0.488 µM; in [8] it was 0.145 µM; in [9], 0.0778 µM; in [10], 0.278 µM. For the same molecule, the TGI came to 13.1 µM in assay [1]; 4.96 µM in assay [2]; 4.12 µM in assay [3]; 1.11 µM in assay [4]; 24.1 µM in assay [5]; 7.62 µM in [6]. Further, the TGI in [7] is 35.7 µM; in [8] it was over 35.1 µM; in [9], 12.8 µM; in [10] it was 1.62 µM.

In the case of `Cc1c(C(=O)O[C@H]2[C@@H]3[C@H](C)CC[C@H]3[C@]3(C)O[C@@]2(C2CCCCC2)C[C@H]3OC(=O)CO)ccc2ccccc12`, the GI50 in [1] was 7.57 µM; in assay [2], 8.89 µM; in assay [3] it was 7.97 µM; in [4], 0.0173 µM; in assay [5], 7.77 µM; in assay [6] it was 7.24 µM. Moreover, the GI50 was 7.15 µM in [7], 11 µM in [8], 6.96 µM in assay [9] and 7.04 µM in assay [10]. Besides, the TGI turned out to be 14.5 µM in assay [1]; 20.6 µM in assay [2]; 15.1 µM in assay [3]; 0.144 µM in assay [4]; 14.6 µM in [5]; 14.5 µM in assay [6]. The TGI in assay [7] came to 17.7 µM; in assay [8] it was 27 µM; in assay [9], 15.6 µM; in assay [10], 13.6 µM.

For `O=C(O)C(=O)CBr`, the GI50 in assay [1] was > 38.9 µM and 18.5 µM; in [2], > 48.9 µM and 26.8 µM; in [3], > 44.7 µM and 19 µM; in [4], over 100 µM; in assay [5], > 61.9 µM and 17 µM; in assay [6], > 41.7 µM and 16.9 µM. Besides, the GI50 was > 40.6 µM and 21.9 µM in [7]; > 22.2 µM and 23.8 µM in assay [8]; > 51.6 µM and 19.5 µM in [9]; over 100 µM in assay [10]. Also, the TGI in [1] was > 54.2 µM and 33.3 µM; in assay [2], > 73.5 µM and 55.6 µM; in [3] it was > 62.5 µM and 35.3 µM; in assay [4], over 100 µM; in assay [5], > 100 µM and 31.4 µM; in [6] it was > 59.1 µM and 32.5 µM. Also, the TGI is > 72.9 µM and 51.9 µM in assay [7]; > 68.2 µM and 59.1 µM in [8]; > 81.7 µM and 37.1 µM in assay [9]; over 100 µM in [10].

On to `NS(=O)(=O)c1ccc(NC(=O)Nc2ccccc2F)cc1`, for which the TGI in assay [1], in [2], in [3], in [4], in assay [5] and in [6] was over 100 µM throughout. Further, the TGI in assay [7], in assay [8], in assay [9] and in assay [10] was over 100 µM in each case.

`CC[C@H](NC(=O)[C@H](CS(=O)(=O)CC1CC1)N[C@@H](c1ccc(F)cc1)C(F)(F)F)C(=O)C(=O)NC1CC1`: the GI50 in [1], in assay [2], in assay [3], in [4], in assay [5] and in [6] was over 100 µM each time. In addition, the GI50 in assay [7] is 32.8 µM; in [8], over 100 µM; in assay [9] it was over 100 µM; in assay [10], over 100 µM. The TGI in assay [1], in assay [2], in assay [3], in [4], in [5] and in assay [6] was over 100 µM throughout. Further, the TGI in [7], in assay [8], in assay [9] and in assay [10] was over 100 µM in each case.

Regarding `Cn1ncc(-c2ccc3c(=O)[nH]nc(CN)c3c2)c1-c1c(F)cc2ccccc2c1C#N`, the GI50 in assay [1] is 3.69 µM; in assay [2] it was 4.78 µM; in [3], 10.2 µM; in assay [4], 11.7 µM; in [5] it was 8.59 µM; in assay [6], 4.57 µM. Moreover, the GI50 in assay [7] is 2.29 µM; in assay [8], 3.41 µM; in [9], 8.21 µM; in assay [10], 11.7 µM. Moreover, the TGI stood at 14.5 µM in assay [1]; 27.4 µM in assay [2]; 23.6 µM in [3]; 23.9 µM in assay [4]; 21.1 µM in assay [5]; 17.6 µM in assay [6]. In addition, the TGI in assay [7] was found to be 12.6 µM; in [8] it was 38.3 µM; in assay [9] it was 23.6 µM; in assay [10] it was 24.6 µM.

Consider `COc1ccc2c(c1)CC[C@@H]1[C@@H]2CC[C@]2(C)C=C(/C=C/C(=O)c3ccccc3)C[C@@H]12`, for which the GI50 in [1] was 15.6 µM; in assay [2], 24.3 µM; in assay [3], 13.8 µM; in assay [4], 13.3 µM; in assay [5] it was 14.6 µM; in assay [6], 14 µM. Moreover, the GI50 was 16.5 µM in assay [7], 18.5 µM in assay [8], 15.4 µM in assay [9] and 17.5 µM in [10]. In addition, the TGI is 29.1 µM in assay [1]; 54.4 µM in assay [2]; 27.2 µM in assay [3]; 26.3 µM in assay [4]; 28.4 µM in assay [5]; 30.1 µM in assay [6]. Besides, the TGI came out at 54.5 µM in [7], 46.4 µM in assay [8], 30.5 µM in [9] and 34 µM in assay [10].
